# Data from ChEMBL document CHEMBL3769343, “Spiromastilactones: A new class of influenza virus inhibitors from deep-sea fungus” (Eur J Med Chem, 2016).
# Active and inactive are the calls of the source. No cut-off for these calls is given here.
# Assays:
# [1] = test system: Influenza A virus; experiment: Antiviral activity against Influenza A virus A/WSN/1933 (H1N1) infected in MDCK cells assessed as protection against virus induced cytopathic effect after 40 hrs by Celltiter-Glo assay; type: functional, organism-based
# [2] = test system: Influenza A virus (A/WSN/1933(H1N1)); experiment: Binding affinity to Influenza A virus A/WSN/33 (H1N1) HA1 protein by surface plasmon resonance assay
# [3] = Cytotoxicity against MDCK cells after 40 hrs by Celltiter-Glo assay; type: cell-based, Canis lupus familiaris; settings: dog
# [4] = Inhibition of Influenza A virus A/WSN/33 (H1N1) HA1 protein by surface plasmon resonance assay; parameters: species or system Influenza A virus (A/WSN/1933(H1N1))
# [5] = test system: Influenza B virus; experiment: Antiviral activity against influenza B virus B/SZ/155 infected in dog MDCK cells assessed as inhibition of virus induced cytopathic effect after 40 hrs by Cell-Titer-Glo assay; type: functional, organism-based; settings: B/SZ/155, MDCK
# [6] = test system: Influenza A virus; experiment: Antiviral activity against Influenza A virus A/WSN/33 (H1N1) assessed as inhibition of viral infection in dog MDCK cells at 50 uM after 36 hrs; type: functional; settings: A/WSN/1933(H1N1)
# [7] = test system: Influenza A virus (A/WSN/1933(H1N1)); experiment: Binding affinity to Influenza A virus A/WSN/33 (H1N1) HA1 protein assessed as decrease in protein affinity to sialic acid receptor at 2.5 uM by surface plasmon resonance assay
# [8] = test system: Influenza A virus (A/WSN/1933(H1N1)); experiment: Binding affinity to Influenza A virus A/WSN/33 (H1N1) HA1 protein assessed as decrease in protein affinity to sialic acid receptor at 40 uM by surface plasmon resonance assay relative to control
# [9] = test system: Influenza A virus (A/WSN/1933(H1N1)); experiment: Inhibition of Influenza A virus A/WSN/33 (H1N1) HA1 protein assessed as inhibition of virus induced aggregation of chicken erythrocytes after 30 mins
# [10] = test system: Influenza A virus; experiment: Antiviral activity against Influenza A virus A/WSN/33 (H1N1) infected in dog MDCK cells assessed as reduction in nucleoprotein level at 100 uM measured over 10 hrs by Western blot analysis relative to control; type: functional, organism-based; settings: A/WSN/1933(H1N1)
# [11] = test system: HEK-293T; experiment: Inhibition of Influenza A virus RNP infected in HEK293T cells assessed as decrease in ratio of Fluc to Rluc; type: cell-based; settings: Influenza A virus (A/WSN/1933(H1N1))
# [12] = test system: Influenza A virus; experiment: Antiviral activity against Influenza A virus A/WSN/33 (H1N1) infected in dog MDCK cells assessed as reduction in nucleoprotein level at 100 uM measured over 2 hrs by Western blot analysis relative to control; type: functional, organism-based; settings: A/WSN/1933(H1N1)
# [13] = test system: Influenza A virus; experiment: Antiviral activity against Influenza A virus A/WSN/33 (H1N1) infected in dog MDCK cells assessed as reduction in nucleoprotein level at 100 uM measured at 8 to 10 hrs by Western blot analysis relative to control; type: functional, organism-based; settings: A/WSN/1933(H1N1)
# [14] = test system: Influenza A virus (A/WSN/1933(H1N1)); experiment: Binding affinity to Influenza A virus A/WSN/33 (H1N1) HA1 protein assessed as decrease in protein affinity to sialic acid receptor at 10 uM by surface plasmon resonance assay
# [15] = test system: Influenza A virus; experiment: Antiviral activity against Influenza A virus A/WSN/33 (H1N1) infected in dog MDCK cells assessed as inhibition of viral nucleoprotein synthesis after 6 hrs by DAPI staining based immunofluorescence microscopy; type: functional, organism-based; settings: A/WSN/1933(H1N1)
# [16] = Binding affinity to Influenza A virus A/WSN/33 (H1N1) HA1 protein assessed as decrease in protein affinity to sialic acid receptor by surface plasmon resonance assay (reference value: 70 nM); parameters: species or system Influenza A virus (A/WSN/1933(H1N1))
# [17] = test system: Influenza A virus; experiment: Antiviral activity against Influenza A virus A/WSN/33 (H1N1) assessed as inhibition of viral infection in dog MDCK cells at 50 uM pretreated with cells for 30 mins followed by exposure to virus for 1 hr measured after 36 hrs; type: functional; settings: A/WSN/1933(H1N1)
# [18] = test system: Influenza A virus; experiment: Antiviral activity against Influenza A virus A/WSN/33 (H1N1) infected in human A549 cells assessed as inhibition of mRNA of M1 segment production after 7 hrs by qRT-PCR analysis; type: functional, organism-based; settings: A/WSN/1933(H1N1)
# [19] = test system: Influenza A virus; experiment: Antiviral activity against Influenza A virus A/WSN/33 (H1N1) infected in dog MDCK cells assessed as reduction in nucleoprotein level at 100 uM measured at 2 to 5 hrs by Western blot analysis relative to control; type: functional, organism-based; settings: A/WSN/1933(H1N1)
# [20] = test system: Influenza A virus (A/WSN/1933(H1N1)); experiment: Binding affinity to Influenza A virus A/WSN/33 (H1N1) HA1 protein assessed as decrease in protein affinity to sialic acid receptor at 20 uM by surface plasmon resonance assay
# [21] = test system: Influenza A virus; experiment: Antiviral activity against Influenza A virus A/WSN/33 (H1N1) infected in dog MDCK cells assessed as reduction in nucleoprotein level at 100 uM measured at 5 to 8 hrs by Western blot analysis relative to control; type: functional, organism-based; settings: A/WSN/1933(H1N1)
# [22] = test system: HEK-293T; experiment: Effect on renilla luciferase expressed in HEK293T cells at 6.25 to 50 uM after 48 hrs; type: cell-based
# [23] = test system: Influenza A virus; experiment: Antiviral activity against Influenza A virus A/WSN/33 (H1N1) infected in human A549 cells assessed as inhibition of (-)vRNA production after 7 hrs by qRT-PCR analysis; type: functional, organism-based; settings: A/WSN/1933(H1N1)
# [24] = Binding affinity to Influenza A virus H3N2 HA3 protein by surface plasmon resonance assay
# [25] = test system: A549; experiment: Binding affinity to Influenza A virus A/WSN/33 (H1N1) HA1 protein assessed as inhibition of virus attachment to human A549 cells at 10 to 50 uM after 1 hr by DAPI staining based immunofluorescence microscopic analysis; type: cell-based; settings: Influenza A virus (A/WSN/1933(H1N1))
# [26] = test system: HeLa; experiment: Binding affinity to Influenza A virus A/WSN/33 (H1N1) HA2 protein assessed as polykaryon formation in human HeLa cells preincubated with test compound for 15 mins followed by further test compound addition at pH 4.9 for 15 mins by crystal violet staining-based microscopic analysis; type: cell-based; settings: Influenza A virus (A/WSN/1933(H1N1))
# [27] = Binding affinity to Influenza A virus A/WSN/33 (H1N1) HA1 protein assessed as decrease in protein affinity to sialic acid receptor by measuring dissociation constant by surface plasmon resonance assay (reference value: 0.001473/Ms); parameters: species or system Influenza A virus (A/WSN/1933(H1N1))
# [28] = test system: Influenza A virus; experiment: Antiviral activity against Influenza A virus A/WSN/33 (H1N1) infected in human A549 cells assessed as inhibition of (+)cRNA production after 7 hrs by qRT-PCR analysis; type: functional, organism-based; settings: A/WSN/1933(H1N1)
# [29] = test system: Influenza A virus; experiment: Antiviral activity against Influenza A virus A/WSN/33 (H1N1) assessed as inhibition of viral infection in dog MDCK cells at 50 uM pretreated with virus for 30 mins followed by host cell inoculation for 1 hr measured after 36 hrs; type: functional; settings: A/WSN/1933(H1N1)
# [30] = test system: Influenza A virus (A/WSN/1933(H1N1)); experiment: Binding affinity to Influenza A virus A/WSN/33 (H1N1) HA1 protein assessed as decrease in protein affinity to sialic acid receptor at 5 uM by surface plasmon resonance assay
# [31] = test system: Influenza A virus (A/WSN/1933(H1N1)); experiment: Binding affinity to Influenza A virus A/WSN/33 (H1N1) HA1 protein assessed as decrease in protein affinity to sialic acid receptor at 0.625 uM by surface plasmon resonance assay
# [32] = test system: Influenza A virus (A/WSN/1933(H1N1)); experiment: Binding affinity to Influenza A virus A/WSN/33 (H1N1) HA1 protein assessed as decrease in protein affinity to sialic acid receptor at 1.25 uM by surface plasmon resonance assay
# [33] = Binding affinity to influenza B virus HA1 protein by surface plasmon resonance assay
# [34] = test system: Influenza A virus (A/WSN/1933(H1N1)); experiment: Binding affinity to Influenza A virus A/WSN/33 (H1N1) HA1 protein assessed as decrease in protein affinity to sialic acid receptor by measuring association constant by surface plasmon resonance assay (reference value: 20810/s)
smiles,measurement,setting,value
CCCc1cc(O)c(Cl)c(O)c1Oc1c(Cl)c(O)c(Cl)c2c1C(=O)O[C@@H]2CC,IC50,[1],30.7 µM
same,Ka,[2],0.67 ×10⁴ /Ms
same,CC50 at 40 h,[3],> 100 µM
same,IC50,[4],30.7 µM
CCCc1c(Cl)c(OC)c(Cl)c(O)c1Oc1c(Cl)c(O)c(Cl)c2c1C(=O)O[C@@H]2CC,IC50,[1],> 50 µM
same,CC50 at 40 h,[3],> 50 µM
NC12CC3CC(CC(C3)C1)C2 [AMANTADINE],IC50,[1],13 µM
same,CC50 at 40 h,[3],> 100 µM
same,EC50,[5],144 µM
CCCc1c(Cl)c(O)cc(OC)c1Oc1c(Cl)c(O)c(Cl)c2c1C(=O)O[C@@H]2CC,inhibition at 50 µM,[6],90%
same,Activity,[7],10.3 RU
same,fold change (FC),[8],8
same,inhibition,[9],Dose-dependent effect
same,Activity,[10],Active
same,IC50,[1],6 µM
same,inhibition,[11],Active
same,Activity,[12],Active
same,Activity,[13],inactive
same,Activity,[14],44.8 RU
same,inhibition,[15],Dose-dependent effect
same,Kd,[16],0.547 µM
same,inhibition at 50 µM,[17],25%
same,inhibition,[18],Dose-dependent effect
same,Activity,[19],Active
same,Activity,[20],98.2 RU
same,Activity,[21],Active
same,Activity,[22],inactive
same,Ka,[2],2.3 ×10⁴ /Ms
same,inhibition,[23],Dose-dependent effect
same,Kd,[24],18 µM
same,CC50 at 40 h,[3],> 100 µM
same,inhibition,[25],Active
same,Activity,[26],inactive
same,Kd,[27],0.00187 M⁻¹ s⁻¹
same,inhibition,[28],Dose-dependent effect
same,inhibition at 50 µM,[29],40%
same,Activity,[30],21 RU
same,Activity,[31],3.3 RU
same,Activity,[32],5.4 RU
same,IC50,[4],6 µM
same,EC50,[5],32 µM
same,Kd,[33],14 µM
same,Ka,[34],3420 s⁻¹
CCCc1c(Cl)c(OC)cc(O)c1Oc1c(Cl)c(O)c(Cl)c2c1C(=O)O[C@@H]2CC,IC50,[1],> 50 µM
same,CC50 at 40 h,[3],> 50 µM
CCCc1c(Cl)c(O)cc(O)c1Oc1c(Cl)c(O)c(Cl)c2c1C(=O)O[C@@H]2CC,IC50,[1],27.6 µM
same,CC50 at 40 h,[3],> 50 µM
CCCc1cc(O)cc(O)c1C(=O)O,IC50,[1],> 100 µM
same,CC50 at 40 h,[3],> 100 µM
CCCc1c(Cl)c(O)c(Cl)c(O)c1Oc1c(Cl)c(O)c(Cl)c2c1C(=O)O[C@@H]2CC,IC50,[1],38.2 µM
same,CC50 at 40 h,[3],> 50 µM
CC[C@H]1OC(=O)c2c(O)c(Cl)c(O)c(Cl)c21,IC50,[1],> 100 µM
same,CC50 at 40 h,[3],> 100 µM
